Results on 55 compounds are retold here after PubChem BioAssay AID1259246 (Broad Institute, 2017).

Results filed as inconclusive are left out. The source made the active and inactive calls.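 How the source made its calls: active means valid dose-response fit whose half-maximal growth-inhibiting concentration is at or below a set limit above the top tested dose; inconclusive means flat fit with effect between 30 and 70%, or poor fit; inactive means half-maximal concentration above a set limit.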

The first experiment is described as follows: antibacterial activity against Clostridioides difficile – 10-point retest, dose response (AID 1259246). The settings on record: Clostridioides difficile clinical isolate growth, OD600, 24 h; at 60 µM (top of the series).
As to `C[C@H](CO)N1C[C@H](C)[C@@H](CN(C)S(C)(=O)=O)OCCCC[C@H](C)Oc2ccc(NC(=O)Nc3cccc4ccccc34)cc2C1=O`, the activity change, negative = inhibition is 9.57% (inactive). The same measure, in the same setting: under `C[C@@H]1CN([C@@H](C)CO)S(=O)(=O)c2ccc(C#Cc3ccccc3F)cc2O[C@@H]1CN(C)CC1CCOCC1` stands 3.46% (inactive); under `C[C@@H]1CN([C@H](C)CO)S(=O)(=O)c2ccc(/C=C/c3ccccc3)cc2O[C@H]1CN(C)Cc1ccccc1`, 2.59% (inactive).

The experiment is the same for the next values; noted with them: Clostridioides difficile clinical isolate growth, OD600, 24 h; at 120 µM (top of the series).
Turning to `O=C(C[C@@H]1C[C@H]2c3cc(NC(=O)Nc4ccc(F)cc4)ccc3O[C@H]2[C@@H](CO)O1)NC1CCCCC1`, the activity change, negative = inhibition was -2.82% (inactive).

For the compound `CC(C)CC#Cc1ccc2c(c1)O[C@H](CN(C)Cc1ccc3c(c1)OCO3)[C@H](C)CN([C@H](C)CO)S2(=O)=O`, the activity change, negative = inhibition is 15.4% (inactive). Still for that read-out and setting: under `CC(C)NC(=O)Nc1ccc2c(c1)CC(=O)N([C@H](C)CO)C[C@@H](C)[C@@H](CN(C)Cc1ccc(-c3ccccc3)cc1)O2` stands 20.5% (inactive); under `CCCC#Cc1ccc2c(c1)O[C@H](CN(C)Cc1ccc3c(c1)OCO3)[C@H](C)CN([C@H](C)CO)S2(=O)=O`, 33% (inactive); under `COc1ccc(NC(=O)Nc2cccc3c2O[C@@H](CN(C)Cc2ccc(Oc4ccccc4)cc2)[C@@H](C)CN([C@@H](C)CO)C3=O)cc1`, 30.5% (inactive). On the same count and under the same terms, under `C/C=C/c1ccc2c(c1)O[C@H](CN(C)Cc1ccc(F)cc1)[C@H](C)CN([C@@H](C)CO)S2(=O)=O` stands 7.75% (inactive); under `COc1ccc(-c2ccc([C@H]3[C@H](C#N)N[C@H]3CO)cc2)cc1`, -2.73% (inactive); under `C[C@@H]1CN([C@H](C)CO)C(=O)c2cccc(NC(=O)Nc3ccc(C(F)(F)F)cc3)c2O[C@H]1CN(C)Cc1ccc(-c2ccccc2)cc1`, 8.44% (inactive). As to `C[C@@H]1CN([C@H](C)CO)C(=O)Cc2cc(NC(=O)CCCN(C)C)ccc2O[C@@H]1CN(C)Cc1ccc(Oc2ccccc2)cc1`, the activity change, negative = inhibition is 22.2% (inactive).

For the compound `C[C@H](CO)N1C[C@H](C)[C@@H](CN(C)Cc2ccc(Oc3ccccc3)cc2)Oc2ccc(NC(=O)C3CC3)cc2CC1=O`, the activity change, negative = inhibition is 33.9% (inactive).

Take `C[C@@H]1CN([C@H](C)CO)C(=O)c2cccc(NC(=O)Nc3ccccc3)c2O[C@H]1CN(C)Cc1ccc(Oc2ccccc2)cc1`: the activity change, negative = inhibition is 17.8% (inactive). With `CC(C)CC#Cc1ccc2c(c1)O[C@@H](CN(C)CC1CCOCC1)[C@H](C)CN([C@@H](C)CO)S2(=O)=O`, the activity change, negative = inhibition was 13.6% (inactive). Still for that read-out and setting: to `O=C(C[C@H]1C[C@H]2c3cc(NC(=O)C4CCC4)ccc3O[C@H]2[C@H](CO)O1)NCc1ccc(Cl)cc1` belongs 6.93% (inactive). Still for that read-out and setting: under `Cc1ccc(S(=O)(=O)N[C@H]2CC[C@H](CCNC(=O)c3ccc4c(c3)OCO4)O[C@H]2CO)cc1` stands -3.6% (inactive); under `C[C@@H]1CN([C@H](C)CO)S(=O)(=O)c2ccc(C#CC3CCCCC3)cc2O[C@H]1CN(C)Cc1cccnc1`, 18.8% (inactive); under `C[C@@H]1CN([C@H](C)CO)C(=O)c2cc(NC(=O)Nc3cccc4ccccc34)ccc2O[C@@H](C)CCCCO[C@H]1CN(C)S(=O)(=O)c1ccccc1`, 9.12% (inactive). On the same count and under the same terms, to `CC(C)CC#Cc1ccc2c(c1)O[C@H](CN(C)Cc1ccc(F)cc1)[C@H](C)CN([C@@H](C)CO)S2(=O)=O` belongs 34.5% (inactive).

As for `C[C@H](CO)N1C[C@H](C)[C@H](CN(C)C(=O)NC2CCCCC2)Oc2c(NC(=O)Nc3ccc(C(F)(F)F)cc3)cccc2C1=O`, the activity change, negative = inhibition is 32.2% (inactive).

As for `CC(C)CC#Cc1ccc2c(c1)O[C@H](CN(C)Cc1ccccc1F)[C@H](C)CN([C@H](C)CO)S2(=O)=O`, the activity change, negative = inhibition is 21.7% (inactive).

Turning to `C[C@H](CO)N1C[C@H](C)[C@H](CN(C)Cc2cccnc2)Oc2cc(C#CC3CCCCC3)ccc2S1(=O)=O`, the activity change, negative = inhibition is 24.1% (inactive). On the same count and under the same terms, to `C[C@@H]1CCCCO[C@H](CN(C)S(=O)(=O)c2ccc(F)cc2)[C@@H](C)CN([C@H](C)CO)C(=O)c2cc(NC(=O)Nc3cccc4ccccc34)ccc2O1` belongs 7.93% (inactive); to `CC(C)CC#Cc1ccc2c(c1)O[C@@H](CN(C)Cc1ccc3c(c1)OCO3)[C@H](C)CN([C@@H](C)CO)S2(=O)=O`, 11% (inactive); to `CNC[C@H]1Oc2cc(Br)ccc2S(=O)(=O)N([C@H](C)CO)C[C@@H]1C`, 6.99% (inactive). On the same count and under the same terms, under `CO[C@H]1CN(C)C(=O)c2cc(NC(=O)Nc3ccc4c(c3)OCO4)ccc2OC[C@H](C)NC[C@H]1C` stands -6.51% (inactive); under `CO[C@@H]1CN(C)C(=O)c2cc(NC(=O)c3nc4ccccc4s3)ccc2OC[C@H](C)N(Cc2ccncc2)C[C@@H]1C`, 13.2% (inactive); under `C/C=C/c1ccc2c(c1)O[C@@H](CN(C)Cc1ccc(C(=O)O)cc1)[C@H](C)CN([C@@H](C)CO)S2(=O)=O`, -3.63% (inactive).

As to `C[C@H]1CN([C@@H](C)CO)C(=O)Cc2cc(NC(=O)C3CC3)ccc2O[C@H]1CN(C)Cc1ccc(-c2ccccc2)cc1`, the activity change, negative = inhibition was 18.3% (inactive). Still for that read-out and setting: under `COc1ccc(CN2C[C@H](C)[C@@H](OC)CN(C)C(=O)c3ccc(NC(=O)c4nc5ccccc5s4)cc3OC[C@@H]2C)cc1` stands 9.23% (inactive). `C[C@H](CO)N1C[C@H](C)[C@@H](CN(C)Cc2cccnc2)Oc2cc(C#CC3CCCCC3)ccc2S1(=O)=O`: the activity change, negative = inhibition is 27.1% (inactive). Still for that read-out and setting: under `C[C@@H]1CN([C@@H](C)CO)S(=O)(=O)c2ccc(Br)cc2O[C@H]1CN(C)Cc1cccnc1` stands 2.31% (inactive); under `C/C=C/c1ccc2c(c1)O[C@H](CN(C)Cc1ccc(F)cc1)[C@H](C)CN([C@H](C)CO)S2(=O)=O`, 11.8% (inactive); under `C[C@@H]1CN([C@H](C)CO)C(=O)c2cccc(NC(=O)Nc3ccc(C(F)(F)F)cc3)c2O[C@H]1CN(C)Cc1ccncc1`, 56.1% (inactive).

For `CO[C@H]1CN(C)C(=O)c2cc(NC(=O)c3nc4ccccc4s3)ccc2OC[C@H](C)N(Cc2ccncc2)C[C@@H]1C`, the activity change, negative = inhibition is 4.91% (inactive). On to `COc1ccc(-c2ccc([C@H]3[C@H](C#N)N(C(=O)c4cccc(F)c4)[C@H]3CO)cc2)cc1`, for which the activity change, negative = inhibition is 21.7% (inactive). For the compound `C[C@H](CO)N1C[C@H](C)[C@@H](CN(C)Cc2ccc(Oc3ccccc3)cc2)Oc2c(NC(=O)Nc3ccccc3)cccc2C1=O`, the activity change, negative = inhibition was 23.8% (inactive). Still for that read-out and setting: under `Cc1ccc(-c2ccc3c(c2)O[C@H](CN(C)Cc2cccnc2)[C@@H](C)CN([C@@H](C)CO)S3(=O)=O)cc1` stands 25.7% (inactive). Same read-out and setting: to `C[C@@H]1CN([C@@H](C)CO)C(=O)Cc2cc(NC(=O)CCCN(C)C)ccc2O[C@H]1CN(C)C(=O)Nc1ccccc1` belongs -1.61% (inactive); to `COc1ccc(NC(=O)Nc2cccc3c2O[C@H](CN(C)C(=O)NC2CCCCC2)[C@@H](C)CN([C@H](C)CO)C3=O)cc1`, -0.118% (inactive); to `C[C@H]1CN([C@@H](C)CO)C(=O)Cc2cc(NC(=O)CCCN(C)C)ccc2O[C@H]1CN(C)Cc1ccc(-c2ccccc2)cc1`, 20.8% (inactive).

For the compound `C[C@@H]1CN([C@H](C)CO)S(=O)(=O)c2ccc(C3=CCCCC3)cc2O[C@H]1CN(C)Cc1ccccc1`, the activity change, negative = inhibition is 12.5% (inactive).

Still in this experiment, the particulars now being: Clostridioides difficile clinical isolate growth, OD600, 24 h; at 135 µM (top of the series).
Consider `Cc1ccc(S(=O)(=O)N(C)C[C@H]2Oc3ccc(NS(C)(=O)=O)cc3C(=O)N([C@@H](C)CO)C[C@H]2C)cc1`, for which the activity change, negative = inhibition is 9.46% (inactive). On the same count and under the same terms, to `C[C@H]1CN([C@@H](C)CO)C(=O)Cc2cc(NC(=O)C3CC3)ccc2O[C@@H]1CN(C)Cc1ccc(-c2ccccc2)cc1` belongs 17.1% (inactive); to `CO[C@H]1CN(C)C(=O)c2cc(NS(=O)(=O)c3ccc(-c4ccccc4)cc3)ccc2OC[C@H](C)NC[C@H]1C`, 10.6% (inactive); to `C[C@@H]1CN([C@H](C)CO)C(=O)Cc2cc(NC(=O)C3CC3)ccc2O[C@H]1CN(C)C`, 32.9% (inactive). Same read-out and setting: under `O=C(C[C@H]1C[C@H]2c3cc(NC(=O)Nc4ccccc4)ccc3O[C@H]2[C@@H](CO)O1)NC1CCCC1` stands 11% (inactive). Same read-out and setting: to `C[C@@H]1CN([C@H](C)CO)C(=O)Cc2cc(N(C)C)ccc2O[C@@H]1CN(C)Cc1ccc(Oc2ccccc2)cc1` belongs 23.7% (inactive); to `C[C@H]1CN([C@@H](C)CO)C(=O)Cc2cc(NC(=O)C3CC3)ccc2O[C@@H]1CN(C)Cc1ccc(Oc2ccccc2)cc1`, 17.9% (inactive). `Cc1ccc(S(=O)(=O)N[C@H]2CC[C@H](CCNS(=O)(=O)Cc3ccccc3)O[C@@H]2CO)cc1`: the activity change, negative = inhibition was -4.21% (inactive).

Consider `COc1ccccc1CNC(=O)C[C@H]1C[C@@H]2c3cc(NC(=O)NC4CCCC4)ccc3O[C@@H]2[C@H](CO)O1`, for which the activity change, negative = inhibition was 4.13% (inactive). On the same count and under the same terms, to `CO[C@@H]1CN(C)C(=O)c2cc(NC(=O)c3nc4ccccc4s3)ccc2OC[C@H](C)N(Cc2ccncc2)C[C@H]1C` belongs 7% (inactive); to `C[C@@H]1CN([C@@H](C)CO)C(=O)Cc2cc(NC(=O)Nc3ccccc3)ccc2O[C@@H]1CN(C)Cc1ccc(-c2ccccc2)cc1`, 23.5% (inactive). With `COc1ccc(S(=O)(=O)N(C)C[C@@H]2Oc3ccc(NC(=O)CCCN(C)C)cc3CC(=O)N([C@H](C)CO)C[C@H]2C)cc1`, the activity change, negative = inhibition was -7.92% (inactive).
